Results published in patent EP0121635A1, “3',5',-Diarabinosides, their preparation and their therapeutical application” (SYNTHELABO, priority 1982, dated 1984).

Assays:
[1] = tested on: tumeur ascitique d'Ehrlich; assay: Development of Ehrlich ascites tumour in mice (survival); format: in vivo, Souris; conditions: for Nombre d'animaux sans tumeur au 28ème jour: day 28, controls 0/12 and 0/5; for Nombre d'animaux sans tumeur au 28ème jour / % d'augmentation de survie (pour les animaux décédés): same regimen; for Durée de survie des souris: souris Swiss, 2 x 10^6 malignant cells i.p., 4 days; for % d'augmentation de survie (pour les animaux décédés): versus controls; for % d'augmentation: increase of survival versus controls
Experimental: Les composés de l'invention ont été soumis à des essais pharmacologiques montrant leur intérêt dans le domaine antitumoral. L'action des composés sur le développement de la tumeur ascitique d'Ehrlich chez la Souris a été observée.
Les essais se font sur des lots de 5 ou 6 souris Swiss de 12 à 15 g. Chaque animal reçoit 2 x 10^6 cellules malignes par voie péritonéale. Le traitement débute 16 h après l'inoculation et consiste en 2 injections par jour de 0,75 ml d'une solution de dinucléotide à 2 mg/ml dans le péritoine c'est-à-dire 3 mg par animal et par jour ou 200 mg/kg. La durée du traitement est de 4 jours.
Les dinucléotides,composés de l'invention, ont été testés de la manière indiquée.

virus Herpès = assay: Herpes virus yield in treated cell cultures (TCID50 titre); format: cell-based; conditions: untreated control harvest titre 10^5,625; concentration not given
From the text: L'activité des trois composés de l'invention Ara A-p-Ara A, Ara A-p-Ara C et Ara C-p-Ara A a également été démontrée sur le virus Herpès.
La récolte virale témoin (cellules non traitées) a un titre TCI D50 (tissue culture infecting dosis) de 10^5,625.
Les cultures traitées par les composés de l'invention ont les titres suivants • Ara A-p-Ara A TCID50 = 10^3,16 • ^Ara A^-p-Ara C TCID50 ^< 102 • Ara C-p-Ara A TCID50 ≤ 10^2,5

[2] = Tableau 1, dinucleotide 200 mg/kg per day i.p. in 2 injections, start 16 h after inoculation, controls 16,54 j (Ara A, Ara C) and 18 j (Ara A-p-Ara C)
[3] = Tableau 2, dinucleotide 200 mg/kg per day i.p., controls 14,67 j

SMILES	Nombre d'animaux sans tumeur au 28ème jour ([1]; Tableau 1)	Durée de survie des souris [1, 2]	% d'augmentation de survie (pour les animaux décédés) ([1]; Tableau 1)	% d'augmentation ([1]; Tableau 2)	Durée de survie des souris [1, 3]	TCID50 (titre of viral harvest of treated cultures) (virus Herpès)
Nc1ncnc2c1ncn2[C@@H]1O[C@H](CO)[C@@H](O)[C@@H]1O [Ara A, 9-β-D-arabinofuranosyl-adénine]	0	24,5 j	48,5%	39,75%	20,5 j	–
Nc1ncnc2c1ncn2[C@@H]1O[C@H](COP(=O)(O)O[C@H]2[C@H](O)[C@H](n3cnc4c(N)ncnc43)O[C@@H]2CO)[C@@H](O)[C@@H]1O [Ara A-p-Ara A]	–	–	–	44,3%	21,17 j	–
Nc1ccn([C@@H]2O[C@H](CO)[C@@H](O)[C@@H]2O)c(=O)n1 [Ara C, 1-β-D-arabinofuranosyl-cytosine]	0	32 J	94,4%	–	–	–
Nc1ccn([C@@H]2O[C@H](COP(=O)(O)O[C@H]3[C@H](O)[C@H](n4cnc5c(N)ncnc54)O[C@@H]3CO)[C@@H](O)[C@@H]2O)c(=O)n1 [Ara A-p-Ara C]	4/5	> 36 J	> 100%	–	–	< 102
